Results reported in patent US7151175B2, “Propenecarboxylic acid amidoxime derivatives, a process for the preparation thereof, and pharmaceutical compositions containing the same” (N-Gene Research Laboratories Inc., priority 2000, dated 2006).
Counter-ions that a name gives are not always drawn.

Legend:
conscious rabbits = test: Hyperinsulinaemic euglycaemic clamp studies (insulin sensitivity); type: in vivo, rabbit
Experimental: It was investigated whether treatment with the compounds of the invention effected insulin sensitivity of normal and hypercholesterolaemic conscious rabbits. Adult male white New Zealand rabbits weighing 3–3.5 kg, housed in an animal room (12-hour light/dark periods a day, temperature of 22–25° C., humidity of 50–70%), fed commercial laboratory chow and tap water ad libitum were used throughout. The experimental period commenced after a two-week adaptation period. The rabbits were randomized into two main groups. Half of the animals were continued to feed normal rabbit chow, whereas the second group animals were fed chow enriched with 1.5% cholesterol over a period of eight week. Each main group was divided into four treatment groups: • untreated group, • group treated with a compound of the invention, 10 mg/kg i.v. dose twice a day over 4 days, • group treated with 7-nitroindazole as NOS inhibitor: administration of 5 mg/kg of 7-nitroindazole over 5 min. preceded insulin administration with a 5-min inter-infusion interval, • group treated with both 7-nitroindazole and the compound of the invention as described.
The animals were anaesthetized and polyethylene catheters were inserted into two major branches of the right jugular vein and the left carotid artery. The catheters were exteriorized through the back of the neck and filled with physiological saline containing heparin. […]

[1] = molecular target: T1, poly(adenosine diphosphate ribose)polymerase (PARP) (Rattus norvegicus, UniProt P27008); test: Determination of PARP inhibition, in vitro, on isolated enzyme; type: biochemical; details: PARP isolated from rat liver; four parallel measurements; read-out: PARP I0.5 (converted)
T1 construct: was isolated from rat liver according to the article of Shah, G. M; from tissue; host or cells: rat liver
T1 sequence (P27008 whole entry): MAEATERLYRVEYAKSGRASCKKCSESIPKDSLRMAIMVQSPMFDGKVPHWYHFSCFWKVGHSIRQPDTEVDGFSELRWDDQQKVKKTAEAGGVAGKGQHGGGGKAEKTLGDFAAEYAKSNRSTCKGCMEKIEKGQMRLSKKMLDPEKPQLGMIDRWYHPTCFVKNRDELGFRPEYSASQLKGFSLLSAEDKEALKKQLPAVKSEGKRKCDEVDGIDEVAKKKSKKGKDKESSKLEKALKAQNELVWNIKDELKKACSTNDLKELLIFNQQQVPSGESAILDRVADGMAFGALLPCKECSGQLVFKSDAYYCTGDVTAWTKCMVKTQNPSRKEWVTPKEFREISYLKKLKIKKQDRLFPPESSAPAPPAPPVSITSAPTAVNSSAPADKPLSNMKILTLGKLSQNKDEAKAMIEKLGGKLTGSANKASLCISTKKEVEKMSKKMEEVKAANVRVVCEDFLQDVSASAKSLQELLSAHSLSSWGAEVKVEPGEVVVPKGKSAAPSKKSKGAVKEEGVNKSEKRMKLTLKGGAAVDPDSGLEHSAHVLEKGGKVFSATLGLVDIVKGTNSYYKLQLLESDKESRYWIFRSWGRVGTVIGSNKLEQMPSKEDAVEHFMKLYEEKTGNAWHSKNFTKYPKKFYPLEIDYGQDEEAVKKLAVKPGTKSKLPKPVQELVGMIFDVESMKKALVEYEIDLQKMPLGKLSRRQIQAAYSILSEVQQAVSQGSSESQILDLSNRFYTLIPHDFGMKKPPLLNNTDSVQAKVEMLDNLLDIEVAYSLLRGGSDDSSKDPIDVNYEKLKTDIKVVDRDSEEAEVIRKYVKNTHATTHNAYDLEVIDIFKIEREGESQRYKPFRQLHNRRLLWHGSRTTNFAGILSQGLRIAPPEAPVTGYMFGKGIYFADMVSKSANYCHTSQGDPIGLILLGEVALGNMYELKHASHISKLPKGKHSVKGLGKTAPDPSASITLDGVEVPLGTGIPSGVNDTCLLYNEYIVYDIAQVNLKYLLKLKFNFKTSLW
Experimental: The poly(adenosine diphosphate ribose)polymerase was isolated from rat liver according to the article of Shah, G. M. [Anal. Biochem., 227, 1–13 (1995)]. The PARP activity was determined in 130 μl of reaction mixture consisting of 100 mM of tris-HCl buffer, pH 8.0, 10 mM of MgCl2, 10% glycerol, 1.5 mM of DTT, 100 μg of (32P) or (3H) NAD+, 10 μg of activated DNA, 10 μg of histone. [Tris-HCl is tris(hydroxymethyl)aminomethane hydrochloride.] After 10 minutes of incubation time, the reaction was stopped with 8% perchloric acid, and the protein was separated through centrifugation (10 minutes, 10.000×g). The precipitate was washed with 8% perchloric acid three times, and the radioactivity bound to the protein was measured with a scintillation counter.

male SPRD rats = test: Heart ischemic failure and reperfusion arrhythmia (LAD occlusion/reperfusion); type: in vivo, rat; details: 5 min LAD occlusion, 10 min reperfusion
Experimental: Experiments were carried out in male SPRD rats (acceptable body weight range: 300–350 g). The animals were anesthetized by the administration of pentobarbital [5-ethyl-5-(1-methylbutyl)-2,4,6-(1H,3H,5H)-pyrimidintrione] (60 mg/kg intraperitoneally), and remained breathing spontaneously. The animals were ventilated with a respirator (manufactured by Kutesz, Hungarian Academy of Sciences) by using a trachea cannule inserted after tracheotomy. The standard lead of the ECG II was monitored. The right femoral artery was catheterized and connected to a pressure transducer (BPR-01, Experimetria, Hungary) and a preamplifier. The pulsotachometer (HG-M, Experimetria, Hungary) was started by the pulsating signal of arterial blood pressure. The external jugular vein was cannulated for drug administration. After thoracotomy, a silk (braided, coated 4-0) was placed under the left anterior coronary (LAD) artery. After a few minutes' stabilization period, a 5 min occlusion of LAD artery was applied followed by a 10 min reperfusion period. ECG was recorded in the normal state at the start and in the above periods. From the data of ECG, the span of time of ventricular tachycardia and fibrillation was determined in sec. In addition, the survival ratios in the treated animal groups were recorded.

male NMRI mice = test: Hepatotoxicity induced by acetaminophene (paracetamol); type: in vivo, mouse; details: dose of 50 mg/kg
Experimental: It was examined whether the liver damage induced with paracetamol can be prevented by the novel compounds of the formula I. The symptom of liver damage was characterized by an increase of the GOT and […] enzyme levels induced with paracetamol. The experiments were carried out on male NMRI mice of 30–40 g body weight. The animals were pretreated with the compounds of the formula I, perorally, for 7 days. On day 8, the mice were subjected to starvation for 12 hours, then a 500 mg/kg p.o. dose of paracetamol and a given dose of a compound of the formula I were administered. After 16 hours, the animals were bled to death and the activity of the GOT and GPT enzymes was measured in the serum. The results were analyzed by the non-parametric test of Mann and Whitney. As to the results, the average and the standard deviation are given wherein p<0.05 was considered as significant.

C57BI mice = test: Experimental model of Parkinson's disease (MPTP); type: in vivo, mouse; details: four times 20 mg/kg MPTP intraperitoneally
Source text: Parkinson's disease (PD) is a common disabling idiopathic neurodegenerative disorder characterized by tremor, bradykinesia, rigidity and balance difficulties. These motor abnormalities are caused by the depletion of brain dopamine that results from the loss of dopaminerg neurons in the substantia nigra pars compacta. The analysis of the action of 1-methyl-4-phenyl-1,2,3,6-tetrahydropyridine (MPTP) having selective neurotoxicity shed light to the possible patomechanism of the Parkinson's disease. MPTP induces parkinsonian motor signs in both human and animals [Dexter, A. et al., Ann. Neurol., 35, 38–44 (1994)]. MPTP treatment results in a loss of dopaminergic neurons in the substantia nigra pars compacta, as well. Lewy body-like eosinophilic inclusions appear in the damaged neurons and the activity of mitochondrial complex I is also diminished in these cells. These alterations are characteristic for oxidative stress [Shapira, A., Adv. Neurol., 69, 161–165 (1996)]. The biologically active metabolite of MPTP is MPP [1-methyl-4-phenylpyridinium]. MPP inhibits directly complex I in mitochondria leading to increased generation of superoxide anion. […] After centrifugation (14000×g, 10 min, 4° C.), 20 μl of supernatant were injected onto a reverse phase catecholamine column (ESA, Bedford) and dopamine content was evaluated. […]

| SMILES | IC50 [1] [µM] | also measured |
| --- | --- | --- |
| O=[N+]([O-])c1cccc2cn[nH]c12 [7-nitroindazole] | – | effect on the insulin resistance ameliorating effect of the compounds of the invention (conscious rabbits; experimental hypercholesterolaemia): blocked the insulin resistance ameliorating effect; insulin resistance produced by the substance itself (conscious rabbits; normal animals, 5 mg/kg 7-nitroindazole): produced insulin resistance |
| O=c1onc(C=Cc2ccccc2)n1CC(O)CN1CCCCC1 (centres unmarked) [Example 2, 3-Styryl-4-(3-piperidino-2-hydroxipropyl)-Δ^2-1,2,4-oxadiazolin-5-one hydrochloride] | 27.3 | longer survival relative to the control group after reperfusion (male SPRD rats): 50% |
| O=c1onc(C=Cc2ccccc2)n1CC(O)CN1CCCC1 (centres unmarked) [Example 3, 3-Styryl-4-(3-pyrrolidino-2-hydroxypropyl)-Δ^2-1,2,4-oxadiazolin-5-one-hydrochloride] | 25.4 | – |
| O=c1onc(C=Cc2ccccc2)n1CC(O)CN1CCCCCC1 (centres unmarked) [Example 4, 3-Styryl-4-(3-hexamethyleneimino-2-hydroxypropyl)-Δ^2-1,2,4-oxadiazolin-5-one hydrochloride] | 40.8 | – |
| O=c1onc(C=Cc2ccccc2)n1CC(O)CN1CCOCC1 (centres unmarked) [Example 5, 3-Styryl-4-(3-morpholino-2-hydroxypropyl)-Δ^2-1,2,4-oxadiazolin-5-one hydrochloride] | 39.2 | – |
| CC(C)(C)NCC(O)Cn1c(C=Cc2ccccc2)noc1=O (centres unmarked) [Example 6, 3-Styryl-4-[3-(tert.-butylamino)-2-hydroxypropyl]-Δ^2-1,2,4-oxadiazolin-5-one hydrochloride] | 53.6 | – |
| CN1CC=C(c2ccccc2)CC1 [MPTP, 1-methyl-4-phenyl-1,2,3,6-tetrahydropyridine] | – | decrease in striatal dopamine content (C57BI mice): 80% |

Now from value to compound, other results behind:

| IC50 [1] [µM] | SMILES | also measured |
| --- | --- | --- |
| 31.8 | O=c1onc(C=Cc2ccccc2)n1CC(O)CN1CCc2ccccc2C1 (centres unmarked) [Example 8, 3-Styryl-4-[3-(1,2,3,4-tetrahydro-2-isoquinolyl)-2-hydroxypropyl]-Δ^2-1,2,4-oxadiazolin-5-one hydrochloride] | – |
| 19.2 | Cc1cccc(C)c1NCC(O)Cn1c(C=Cc2ccccc2)noc1=O (centres unmarked) [Example 9, 3-Styryl-4-[3-(2,6-dimethylanilino)-2-hydroxypropyl]-Δ^2-1,2,4-oxadiazolin-5-one hydrochloride] | – |
| 71.9 | COc1ccc(C=Cc2noc(=O)n2CC(O)CN2CCCCC2)cc1OC (centres unmarked) [Example 10, 3-(3,4-Dimethoxystyryl)-4-(3-piperidino-2-hydroxypropyl)-Δ^2-1,2,4-oxadiazolin-5-one hydrochloride] | – |
| 59.3 | ON=C(C=Cc1ccccc1)NCC(O)CN1CCCCC1 (centres unmarked) [Example 12, N-(3-Piperidino-2-hydroxypropyl)cinnamic acid amidoxime] | hepatoprotective effect (male NMRI mice): very favourable hepatoprotective effect |
| 65.5 | ON=C(C=Cc1ccccc1)NCC(O)CN1CCOCC1 (centres unmarked) [Example 13, N-(3-Morpholino-2-hydroxypropyl)cinnamic acid amidoxime dihydrogen maleate] | – |
| 28.3 | CN1CCN(CC(O)CNC(C=Cc2ccccc2)=NO)CC1 (centres unmarked) [Example 14, N-[3-(1-Methyl-4-piperazinyl)-2-hydroxypropyl]cinnamic acid amidoxime trihydrogen maleate] | – |
| 63.1 | C(=Cc1ccccc1)C1=NOC(CN2CCCCC2)CN1 (centres unmarked) [Example 16, 3-Styryl-6-(piperidinomethyl)-4H-5,6-dihydro-1,2,4-oxadiazine] | – |
